Assay results: ChEMBL document CHEMBL1687734, “Pharmacokinetics of EDP-420 after multiple oral doses in healthy adult volunteers and in a bioequivalence study” (Antimicrob Agents Chemother, 2009)

Legend:
Assay type in all cases: ADME, organism-based
Homo sapiens [1] = assay: Half life in healthy human plasma assessed as EDP-420 9-keto level at 400 mg administered once on day 1 followed by 200 mg once daily for 2 days during 3 days of treatment measured after 3 days; conditions: in vivo, 72 h
Homo sapiens [2] = assay: AUC (0 to last) in healthy human plasma assessed as EDP-420 9-keto level at 200 mg, po once daily for 3 days measured after 1 day; set-up: dose 200 mg, time 0 - last, route oral; conditions: in vivo, 24 h
Homo sapiens [3] = assay: Ratio of drug concentration in high-fat fed healthy human plasma at 200 mg, po administered as single dose of two-100 mg capsules to drug concentration in high-fat fed healthy human plasma assessed as EDP-420 9-keto level at 200 mg, po administered as single dose of two-100 mg capsules; conditions: in vivo
Homo sapiens [4] = assay: AUC (0 to last) in high-fat fed healthy human plasma assessed as EDP-420 9-keto level at 200 mg, po administered as single dose of two-100 mg capsules; set-up: dose 200 mg, route oral, time 0 - last; conditions: in vivo
Homo sapiens [5] = assay: AUC (0 to infinity) in 8 hrs fasted healthy human plasma assessed as EDP-420 9-keto level at 200 mg, po administered as single dose of suspension; set-up: dose 200 mg, time infinity, route oral; conditions: in vivo
Homo sapiens [6] = assay: Cmax in healthy human plasma assessed as EDP-420 9-keto level at 400 mg administered once on day 1 followed by 200 mg once daily for 2 days during 3 days of treatment measured after 3 days by HPLC-tandem mass spectrometry; set-up: dose 400 mg; conditions: in vivo, 72 h
Homo sapiens [7] = assay: Ratio of AUC (0 to 24 hrs) in healthy human plasma assessed as EDP-420 9-keto level at loading dose of 400 mg/day, po administered as single dose measured on 1 day to AUC (0 to 24 hrs) in healthy human plasma assessed as EDP-420 9-keto level at 400 mg administered once on day 1 followed by 200 mg once daily for 2 days during 3 days of treatment measured on day 3; conditions: in vivo
Homo sapiens [8] = assay: Ratio of drug concentration in 8 hrs fasted healthy human plasma at 200 mg, po administered as single dose of suspension to drug concentration in 8 hrs fasted healthy human plasma assessed as EDP-420 9-keto level at 200 mg, po administered as single dose of suspension; conditions: in vivo
Homo sapiens [9] = assay: Half life in high-fat fed healthy human plasma assessed as EDP-420 9-keto level at 200 mg, po administered as single dose of two-100 mg capsules; conditions: in vivo
Homo sapiens [10] = assay: AUC (0 to last) in 8 hrs fasted healthy human plasma assessed as EDP-420 9-keto level at 200 mg, po administered as single dose of suspension; set-up: dose 200 mg, time 0 - last, route oral; conditions: in vivo
Homo sapiens [11] = assay: Cmax in 8 hrs fasted healthy human plasma assessed as EDP-420 9-keto level at 200 mg, po administered as single dose of suspension by HPLC-tandem mass spectrometry; set-up: dose 200 mg, route oral; conditions: in vivo
Homo sapiens [12] = assay: Tmax in healthy human plasma assessed as EDP-420 9-keto level at loading dose of 400 mg/day, po once daily for 3 days measured after 1 day; conditions: in vivo, 24 h
Homo sapiens [13] = assay: Cmax in healthy human plasma assessed as EDP-420 9-keto level at 200 mg, po once daily for 3 days measured after 3 days by HPLC-tandem mass spectrometry; set-up: dose 200 mg, route oral; conditions: in vivo, 72 h
Homo sapiens [14] = assay: Tmax in healthy human plasma assessed as EDP-420 9-keto level at 200 mg, po once daily for 3 days measured after 3 days; conditions: in vivo, 72 h
Homo sapiens [15] = assay: Cmax in high-fat fed healthy human plasma assessed as EDP-420 9-keto level at 200 mg, po administered as single dose of two-100 mg capsules by HPLC-tandem mass spectrometry; set-up: dose 200 mg, route oral; conditions: in vivo
Homo sapiens [16] = assay: AUC (0 to infinity) in 8 hrs fasted healthy human plasma assessed as EDP-420 9-keto level at 200 mg, po administered as single dose of two-100 mg capsules; set-up: dose 200 mg, time infinity, route oral; conditions: in vivo
Homo sapiens [17] = assay: Tmax in healthy human plasma assessed as EDP-420 9-keto level at 200 mg, po once daily for 3 days measured after 1 day; conditions: in vivo, 24 h
Homo sapiens [18] = assay: Half life in 8 hrs fasted healthy human plasma assessed as EDP-420 9-keto level at 200 mg, po administered as single dose of suspension; conditions: in vivo
Homo sapiens [19] = assay: Half life in 8 hrs fasted healthy human plasma assessed as EDP-420 9-keto level at 200 mg, po administered as single dose of two-100 mg capsules; conditions: in vivo
Homo sapiens [20] = assay: Cmax in 8 hrs fasted healthy human plasma assessed as EDP-420 9-keto level at 200 mg, po administered as single dose of two-100 mg capsules by HPLC-tandem mass spectrometry; set-up: dose 200 mg, route oral; conditions: in vivo
Homo sapiens [21] = assay: Half life in healthy human plasma assessed as EDP-420 9-keto level at 200 mg, po administered as once daily for 3 days measured after 3 days; conditions: in vivo, 72 h
Homo sapiens [22] = assay: Cmax in healthy human plasma assessed as EDP-420 9-keto level at loading dose of 400 mg/day, po once daily for 3 days measured after 1 day by HPLC-tandem mass spectrometry; set-up: dose 400 mg/day, route oral; conditions: in vivo, 24 h
Homo sapiens [23] = assay: Cmax in healthy human plasma assessed as EDP-420 9-keto level at 200 mg, po once daily for 3 days measured after 1 day by HPLC-tandem mass spectrometry; set-up: dose 200 mg, route oral; conditions: in vivo, 24 h
Homo sapiens [24] = assay: AUC (0 to infinity) in healthy human plasma assessed as EDP-420 9-keto level at 200 mg, po once daily for 3 days measured after 3 days; set-up: dose 200 mg, time infinity, route oral; conditions: in vivo, 72 h
Homo sapiens [25] = assay: AUC (0 to infinity) in high-fat fed healthy human plasma assessed as EDP-420 9-keto level at 200 mg, po administered as single dose of two-100 mg capsules; set-up: dose 200 mg, time infinity, route oral; conditions: in vivo
Homo sapiens [26] = assay: Ratio of AUC (0 to 24 hrs) in healthy human plasma assessed as EDP-420 9-keto level at 200 mg, po once daily for 3 days measured on day 3 to AUC (0 to 24 hrs) in healthy human plasma assessed as EDP-420 9-keto level at 200 mg, po once daily for 3 days measured on day 1; conditions: in vivo
Homo sapiens [27] = assay: AUC (0 to last) in 8 hrs fasted healthy human plasma assessed as EDP-420 9-keto level at 200 mg, po administered as single dose of two-100 mg capsules; set-up: dose 200 mg, time 0 - last, route oral; conditions: in vivo
Homo sapiens [28] = assay: Tmax in high-fat fed healthy human plasma assessed as EDP-420 9-keto level at 200 mg, po administered as single dose of two-100 mg capsules; conditions: in vivo
Homo sapiens [29] = assay: Tmax in 8 hrs fasted healthy human plasma assessed as EDP-420 9-keto level at 200 mg, po administered as single dose of suspension; conditions: in vivo
Homo sapiens [30] = assay: Tmax in 8 hrs fasted healthy human plasma assessed as EDP-420 9-keto level at 200 mg, po administered as single dose of two-100 mg capsules; conditions: in vivo
Homo sapiens [31] = assay: AUC (0 to infinity) in healthy human plasma assessed as EDP-420 9-keto level at 400 mg administered once on day 1 followed by 200 mg once daily for 2 days during 3 days of treatment measured after 3 days; set-up: dose 400 mg, time infinity; conditions: in vivo, 72 h
Homo sapiens [32] = assay: AUC (0 to last) in healthy human plasma assessed as EDP-420 9-keto level at 400 mg administered once on day 1 followed by 200 mg once daily for 2 days during 3 days of treatment measured after 3 days; set-up: dose 400 mg, time 0 - last; conditions: in vivo, 72 h
Homo sapiens [33] = assay: AUC (0 to last) in healthy human plasma assessed as EDP-420 9-keto level at 200 mg, po once daily for 3 days measured after 3 days; set-up: dose 200 mg, time 0 - last, route oral; conditions: in vivo, 72 h
[34] = Drug concentration in Epithelial lining fluid of healthy human at 500 mg, po administered as single dose after 24 hrs; conditions: read-out: Drug uptake
[35] = Drug concentration in Alveolar macrophage of healthy human at 500 mg, po administered as single dose after 24 hrs; conditions: alveolar macrophages, read-out: Drug uptake

SMILES: CC[C@H]1OC(=O)[C@H](C)C(=O)[C@H](C)[C@@H](O[C@@H]2O[C@H](C)C[C@H](N(C)C)[C@H]2O)[C@@]2(C)C[C@@H](C)C(=O)[C@H](C)[C@@H](OC/C(=N\OCc3ccc(-n4cccn4)nc3)CO2)[C@]1(C)O
- t1/2 (Homo sapiens [1]): 27.8 h
- AUC (Homo sapiens [2]): 461 ng·h/mL
- Ratio (Homo sapiens [3]): 0.16
- AUC (Homo sapiens [4]): 1220 ng·h/mL
- AUC (Homo sapiens [5]): 842 ng·h/mL
- Cmax (Homo sapiens [6]): 47.6 ng/mL
- Ratio AUC (Homo sapiens [7]): 1.11
- Ratio (Homo sapiens [8]): 0.1
- t1/2 (Homo sapiens [9]): 28.4 h
- AUC (Homo sapiens [10]): 754 ng·h/mL
- Cmax (Homo sapiens [11]): 24.9 ng/mL
- Tmax (Homo sapiens [12]): 5 h
- Cmax (Homo sapiens [13]): 46 ng/mL
- Tmax (Homo sapiens [14]): 5 h
- Cmax (Homo sapiens [15]): 36.1 ng/mL
- AUC (Homo sapiens [16]): 837 ng·h/mL
- Tmax (Homo sapiens [17]): 5 h
- t1/2 (Homo sapiens [18]): 29.5 h
- t1/2 (Homo sapiens [19]): 30.5 h
- Cmax (Homo sapiens [20]): 23.7 ng/mL
- t1/2 (Homo sapiens [21]): 29.5 h
- Cmax (Homo sapiens [22]): 49 ng/mL
- Cmax (Homo sapiens [23]): 30.5 ng/mL
- AUC (Homo sapiens [24]): 2209 ng·h/mL
- AUC (Homo sapiens [25]): 1326 ng·h/mL
- Ratio AUC (Homo sapiens [26]): 1.76
- AUC (Homo sapiens [27]): 745 ng·h/mL
- Tmax (Homo sapiens [28]): 6 h
- Tmax (Homo sapiens [29]): 5 h
- Tmax (Homo sapiens [30]): 5 h
- AUC (Homo sapiens [31]): 2228 ng·h/mL
- AUC (Homo sapiens [32]): 2154 ng·h/mL
- AUC (Homo sapiens [33]): 2134 ng·h/mL

SMILES: CC[C@H]1OC(=O)[C@H](C)[C@@H](O[C@H]2C[C@@](C)(OC)[C@@H](O)[C@H](C)O2)[C@H](C)[C@@H](O[C@@H]2O[C@H](C)C[C@H](N(C)C)[C@H]2O)[C@](C)(O)C[C@@H](C)CN(C)[C@H](C)[C@@H](O)[C@]1(C)O [AZITHROMYCIN]
- concentration at 24 h [34]: 90 ng/mL
- concentration at 24 h [35]: 30800 ng/mL
